For experiment [1], the target named is Human immunodeficiency virus type 1 protease (Human immunodeficiency virus 1) (UniProt Q72874). Nature of the experiment: Evaluated for the inhibition of HIV-1 Protease.
Experiment [2] addresses Human immunodeficiency virus type 1 integrase (Human immunodeficiency virus 1) (UniProt Q7ZJM1). Put plainly: Inhibitory concentration against HIV-1 Integrase 3' chain transfer.
Experiment [3] concerns the target Human immunodeficiency virus type 1 protease (Human immunodeficiency virus 1) (UniProt Q72874).
Description: Inhibitory concentration against HIV-1 Protease
The target is the same in experiment [4]. The source holds these as a separate data set.
The target in experiment [5] is Human immunodeficiency virus type 1 reverse transcriptase (Human immunodeficiency virus 1) (UniProt Q72547). Put plainly: Inhibitory concentration against Reverse Transcriptase.
Experiment [6] is filed under the species Homo sapiens. Nature of the experiment: Cytotoxicitic activity […] in human PBLs cells. The format is functional, cell-based. Background: Tetrazolium dyes change colour on reduction, which living cells bring about.
The species entered for experiment [7] is Homo sapiens. Nature of the experiment: Antiviral activity against HIV virus induced infection in human PBLs cells. The format is functional, cell-based.
Experiment [8] deals with Human immunodeficiency virus type 1 integrase (Human immunodeficiency virus 1) (UniProt Q7ZJM1). Nature of the experiment: Inhibitory concentration against HIV-1 Integrase 3' chain processing.
Human immunodeficiency virus type 1 integrase (Human immunodeficiency virus 1), sequence (Q7ZJM1 as listed by the source): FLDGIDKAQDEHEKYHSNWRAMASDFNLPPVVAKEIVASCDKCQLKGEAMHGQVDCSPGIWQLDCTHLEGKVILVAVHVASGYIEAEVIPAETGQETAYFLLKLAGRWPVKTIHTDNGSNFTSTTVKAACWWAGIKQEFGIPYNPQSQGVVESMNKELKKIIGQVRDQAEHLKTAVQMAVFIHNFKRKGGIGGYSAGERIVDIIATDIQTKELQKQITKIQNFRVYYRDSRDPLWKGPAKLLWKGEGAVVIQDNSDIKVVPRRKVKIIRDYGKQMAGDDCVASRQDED
A short description of experiment [9]: Inhibition of compound against p7 nucleocapsid fluorescence intensity of the zinc finger ); NI = No inhibition. The class given is functional.

This is an account of results in ChEMBL document CHEMBL1129680, “Discovery of novel, non-peptide HIV-1 protease inhibitors by pharmacophore searching” (J Med Chem, 1996).

The structures appear in SMILES notation. Calls of active or inactive are those of the source. No cut-off for these calls is given here.

On to `CC(C)CC(NC(=O)OCc1ccccc1)(C(=O)O)C(=O)O`, for which the ID50 in experiment [1] came out at 17 µM.

Turning to `CC(=O)OC1CCC2(C)C(C)C(C)CCC2(O)C1O` (configuration not stated), the ID50 in [1] stood at 16 µM. `C[C@]12CCC(=O)C=C1CC[C@@H]1[C@@H]2[C@@H](O)C[C@@]2(C)[C@H]1CC[C@]2(O)C(=O)COC(=O)CCC(=O)O`: the ID50 in experiment [1] is 27 µM. As for `O=c1oc2ccccc2c(O)c1-c1ccccc1`, the ID50 in experiment [1] came out at 42 µM. In the case of `CC(=O)NC(Cc1ccsc1)(C(=O)O)C(=O)O`, the ID50 in [1] is 23 µM. The same measure, in the same setting: next, `O=C1C2=C(C(=O)c3ccccc31)C(O)(S(=O)(=O)O)C(O)(S(=O)(=O)O)C1N=CC=CC21` (configuration not stated): 2 µM; `CCCC(=O)C1=C(O)C(Cc2c(O)c(C)c(O)c(C(=O)CCC)c2O)=C(O)C(C)(C)C1=O`: 26 µM. Still for that read-out and setting: as for `O=c1oc2cccc(O)c2c(O)c1Cc1ccccc1`, the figure is 6 µM. In turn, `O=c1c(C(c2ccc3c(c2)OCO3)c2c(O)oc3ccccc3c2=O)c(O)oc2ccccc12` came in with an ID50 in experiment [1] of 30 µM. On to `CCCCCCc1cc2c(cc1O)OC(=O)C(C(c1ccccc1)c1c(O)oc3cc(O)c(CCCCCC)cc3c1=O)C2O` (configuration not stated), for which the ID50 in [1] was 0.32 µM.

Broadly, the IC50 is the concentration at which inhibition is half-maximal. One may read the EC50 as the midpoint of the concentration-response curve. In the case of `O=c1c(C(c2ccc(C(c3c(O)oc4ccccc4c3=O)c3c(O)oc4ccccc4c3=O)cc2)c2c(O)oc3ccccc3c2=O)c(O)oc2ccccc12`, the ID50 stood at 0.7 µM in experiment [2]; 1.7 µM in experiment [3]; 1.7 µM in [1]; 7.1 µM in [5]; 1.5 µM in [8]. For the same compound, the ID50 entry in [4] is “inactive”. The same compound had an IC50 in the experiment listed under Homo sapiens [6] of 54.8 µM. The same compound gave an EC50 in the experiment listed under Homo sapiens [7] of 11.5 µM. Also, in experiment [9], the RFU result is “inactive”. Turning to `O=c1oc2c(-c3ccccc3)cccc2c(O)c1-c1ccccc1`, the ID50 in experiment [1] was found to be 13 µM.

Take `O=C1C(O)=C(C(C2=C(O)C(=O)c3ccccc3C2=O)c2ccc(C(C3=C(O)C(=O)c4ccccc4C3=O)C3=C(O)C(=O)c4ccccc4C3=O)cc2)C(=O)c2ccccc21`: the ID50 in experiment [1] is 0.75 µM. `O=C1Oc2ccccc2C(O)C1Sc1c(O)oc2ccccc2c1=O` (configuration not stated) displayed an ID50 in [1] of 21 µM. For `O=C(Oc1ccccc1)N(CCO)C(c1ccccc1)C(O)c1ccccc1` (configuration not stated), the ID50 in experiment [1] is 32 µM. The compound `Cc1cn([C@H]2C[C@H](N=[N+]=[N-])[C@@H](COP(=O)(O)OP(=O)(O)OP(=O)(O)O)O2)c(=O)[nH]c1=O` returned an ID50 in experiment [1] of 54 µM.

In the case of `CC1(C)CC[C@]2(C(=O)O)CC[C@]3(C)C(=CC[C@@H]4[C@@]5(C)C[C@H](O)[C@H](O)[C@@](C)(C(=O)O)[C@H]5CC[C@]43C)[C@@H]2C1`, the ID50 in [1] was determined as 35 µM. Same read-out and setting: next, `O=C1C(O)=C(C(C2=C(O)C(=O)c3ccccc3C2=O)c2ccc(Cl)cc2Cl)C(=O)c2ccccc21`: 24 µM; `CC(C)c1cccc(C(C)C)c1NC(=O)C(=O)CC(=O)CC(c1ccccc1)c1c(O)oc2ccccc2c1=O` (configuration not stated): 31 µM.
